US8895740B2, “Pyrazolopyrazine kinase inhibitors” (Vertex Pharmaceuticals Incorporated, priority 2010, dated 2014)

How the values were obtained:
PKC theta kinase = PKC theta kinase (Homo sapiens, UniProt Q04759); experiment: PKC theta kinase coupled-enzyme (NADH consumption) inhibition assay; assay type: biochemical; conditions: 240 μM ATP, 18 nM PKC theta, 30° C.
Description: An assay buffer solution was prepared which consisted of 100 mM HEPES (pH 7.5), 10 mM MgCl2, 25 mM NaCl, 0.1 mM EDTA and 0.01% Brij. An enzyme buffer containing reagents to final assay concentrations of 0.00001% Triton X-100, 200 μg/mL Phosphatidylserine, 20 μg/mL Diacylglycerol, 360 μM NADH, 3 mM phosphoenolpyruvate, 70 μg/mL pyruvate kinase, 24 μg/mL lactate dehydrogenase, 2 mM DTT, 100 μM substrate peptide (ERMRPRKRQGSVRRRV SEQ ID NO. 1) and 18 nM PKC theta kinase was prepared in assay buffer. To 60 μL of this enzyme buffer, in a 384 well plate, was added 2 μL of VRT stock solution in DMSO. The mixture was allowed to equilibrate for 10 mins at 30° C. The enzyme reaction was initiated by the addition of 5 μL stock ATP solution prepared in assay buffer to a final assay concentration of 240 μM. Initial rate data was determined from the rate of change of absorbance at 340 nm (corresponding to stoichiometric consumption of NADH) using a Molecular Devices Spectramax plate reader (Sunnyvale, Calif.) over 15 mins at 30° C. For each Ki determination 12 data points covering the VRT concentration range of 0-20 μM were obtained in duplicate (DMSO stocks were prepared from an initial 10 mM VRT stock with subsequent 1:2 serial dilutions). Ki values were calculated from initial rate data by non-linear regression using the Prism software package (Prism 4.0a, Graphpad Software, San Diego, Calif.).

PKC delta kinase = PKC delta kinase (Homo sapiens, UniProt Q05655); experiment: PKC delta kinase coupled-enzyme (NADH consumption) inhibition assay; assay type: biochemical; conditions: 150 μM ATP, 46 nM PKC delta, 30° C.
Chain of PKC delta kinase (Q05655 whole entry): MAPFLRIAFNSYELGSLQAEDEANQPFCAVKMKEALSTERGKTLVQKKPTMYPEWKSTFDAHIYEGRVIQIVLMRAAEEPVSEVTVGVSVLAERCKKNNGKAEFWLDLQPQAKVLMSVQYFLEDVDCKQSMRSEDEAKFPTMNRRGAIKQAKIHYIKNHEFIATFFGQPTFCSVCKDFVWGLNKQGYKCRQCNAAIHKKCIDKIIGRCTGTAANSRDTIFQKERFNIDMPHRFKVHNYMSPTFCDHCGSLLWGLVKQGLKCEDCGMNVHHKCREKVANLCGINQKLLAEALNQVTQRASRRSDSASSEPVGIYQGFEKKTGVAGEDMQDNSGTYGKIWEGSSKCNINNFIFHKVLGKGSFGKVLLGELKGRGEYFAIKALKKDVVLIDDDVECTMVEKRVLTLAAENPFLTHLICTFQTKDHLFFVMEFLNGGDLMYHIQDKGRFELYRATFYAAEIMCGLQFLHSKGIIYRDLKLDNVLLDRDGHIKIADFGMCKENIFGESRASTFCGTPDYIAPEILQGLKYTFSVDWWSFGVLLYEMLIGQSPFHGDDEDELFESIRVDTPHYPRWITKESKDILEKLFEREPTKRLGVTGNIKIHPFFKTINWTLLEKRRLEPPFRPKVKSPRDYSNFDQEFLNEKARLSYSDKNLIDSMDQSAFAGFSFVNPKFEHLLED
Description: An assay buffer solution was prepared which consisted of 100 mM HEPES (pH 7.5), 10 mM MgCl2, 25 mM NaCl, 0.1 mM EDTA and 0.01% Brij. An enzyme buffer containing reagents to final assay concentrations of 0.002% Triton X-100, 200 μg/mL Phosphatidylserine, 20 μg/mL Diacylglycerol, 360 μM NADH, 3 mM phosphoenolpyruvate, 70 μg/mL pyruvate kinase, 24 μg/mL lactate dehydrogenase, 2 mM DTT, 150 μM substrate peptide (ERMRPRKRQGSVRRRV SEQ ID NO. 2) and 46 nM PKC delta kinase was prepared in assay buffer. To 16 μL of this enzyme buffer, in a 384 well plate, was added 1 μL of VRT stock solution in DMSO. The mixture was allowed to equilibrate for 10 mins at 30° C. The enzyme reaction was initiated by the addition of 16 μL stock ATP solution prepared in assay buffer to a final assay concentration of 150 μM. Initial rate data was determined from the rate of change of absorbance at 340 nm (corresponding to stoichiometric consumption of NADH) using a Molecular Devices Spectramax plate reader (Sunnyvale, Calif.) over 15 mins at 30° C. For each Ki determination 12 data points covering the VRT concentration range of 0-20 μM were obtained in duplicate (DMSO stocks were prepared from an initial 10 mM VRT stock with subsequent 1:2 serial dilutions). Ki values were calculated from initial rate data by non-linear regression using the Prism software package (Prism 4.0a, Graphpad Software, San Diego, Calif.).

Chain of PKC theta kinase (Q04759 whole entry): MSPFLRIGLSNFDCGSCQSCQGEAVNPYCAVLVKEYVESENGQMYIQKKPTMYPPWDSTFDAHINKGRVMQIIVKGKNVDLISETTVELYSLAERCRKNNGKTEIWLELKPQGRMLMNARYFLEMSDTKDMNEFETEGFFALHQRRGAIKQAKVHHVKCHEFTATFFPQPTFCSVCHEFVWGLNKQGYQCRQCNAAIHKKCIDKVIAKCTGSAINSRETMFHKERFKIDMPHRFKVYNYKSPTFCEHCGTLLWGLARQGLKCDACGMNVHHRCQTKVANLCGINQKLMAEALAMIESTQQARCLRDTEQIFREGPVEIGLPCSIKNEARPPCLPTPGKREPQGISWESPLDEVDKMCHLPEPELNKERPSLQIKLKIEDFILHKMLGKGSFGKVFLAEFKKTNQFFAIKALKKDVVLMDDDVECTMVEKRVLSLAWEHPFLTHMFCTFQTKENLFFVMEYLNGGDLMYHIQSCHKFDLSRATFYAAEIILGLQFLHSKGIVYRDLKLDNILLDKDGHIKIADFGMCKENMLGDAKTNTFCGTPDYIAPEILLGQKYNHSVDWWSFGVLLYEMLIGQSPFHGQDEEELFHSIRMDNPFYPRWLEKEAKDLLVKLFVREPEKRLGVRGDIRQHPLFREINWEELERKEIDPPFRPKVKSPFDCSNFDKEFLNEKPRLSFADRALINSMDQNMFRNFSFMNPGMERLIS

Ki (PKC theta kinase): < 2800 nM
Ki (PKC delta kinase): > 1250 nM
SMILES: c1cc(-c2n[nH]c3nccnc23)nc(N2CCNCC2)c1 [Compound 1, 3-(6-(piperazin-1-yl)pyridin-2-yl)-1H-pyrazolo[3,4-b]pyrazine]
